Literature values as cited in patent publication US8563051B2, “Herbal composition for weight management” (InQpharm Sdn Bhd, priority 2005, dated 2013).
Like-named read-outs stand apart in the source and are kept apart here.

Columns and labels:
[1] = doses in the range of 1 to 5 grams a day
[2] = test system: Ehrlich ascites tumor cell; conditions: in vitro
[3] = 8-week human clinical study, 26 subjects
[4] = human clinical weight loss trial
[5] = human clinical trial; blood levels not measured
[6] = rodents

For `O=C(O)CC(O)(C(=O)O)C(O)C(=O)O` (single isomer, unassigned; (-)) [HCA, (−)hydroxycitric acid], which safety assessment [1] is on record?
Its safety assessment is “no relevant safety issues”.

For `C[C@H]1[C@H](C)CC[C@]2(C(=O)O)CC[C@]3(C)C(=CC[C@@H]4[C@@]5(C)C[C@@H](O)[C@H](O)C(C)(C)[C@@H]5CC[C@]43C)[C@H]12` [Corosolic acid, 2-hydroxyursolic acid], which glucose transport activity [2] is on record?
The glucose transport activity was “stimulate significant glucose transport activity”.

What about the “glucose tolerance and blood sugar levels” value [3] of the same compound?
Its value is “improved glucose tolerance and improved blood sugar levels”.

With `O=C([O-])CC(O)(C(=O)[O-])C(O)C(=O)[O-].[Ca+2].[K+]` (stereo not drawn) [calcium and potassium hydroxycitrate] as the compound, how does the weight loss [4] read?
Its weight loss is “shown to be effective”.

Which weight loss [5] does the source give for `O=C([O-])C[C@@](O)(C(=O)[O-])[C@H](O)C(=O)[O-].O=C([O-])C[C@@](O)(C(=O)[O-])[C@H](O)C(=O)[O-].[Ca+2].[Ca+2].[Ca+2]` [calcium salt of hydroxycitric acid] here?
The weight loss was “ineffective for weight loss”.

For sodium salt of hydroxycitric acid, which “food intake and weight” value [6] is on record?
The value was “reduce food intake and cause weight loss”.
